Patent US20220145249A1, “A Method of Altering a Differentiation Status of a Cell” (Agency for Science, Technology and Research, priority 2019, published 2022)

Experiments:
Format in all cases: cell-based, human
[1] = system: iPSC-CRISPR dCas9 SAM cells; assay: minimum inhibitory concentration (MIC) assay for geneticin
Text: The lentiviral vector backbone encodes geneticin as an antibiotic selection marker.

[2] = system: EPO; assay: EPO ELISA of spent medium after endogenous EPO activation; conditions: iPSC-CRISPR dCas9 SAM cells, spent medium of days 3 and 4 pooled, concentrated with 10 KDa filter, retentate, commercial ELISA
Procedure: FIG. 14 Endogenous activation of erythropoietin (EPO) growth factor in human iPSC-dCas9 SAM cells. (a) qPCR data collected after 4 days of EPO sgRNAs lentivirus (unconcentrated) transduction. (b) EPO ELISA was carried out using two commercially available sources to quantify the CRISPRa EPO. For this, the spent mTesR medium of cells transduced with EPO_g2 were collected on days 3 and 4, the pooled medium was concentrated using Amicon Ultra-15 centrifugal filter (10 KDa cutoff membrane) since the EPO MW is 21 KDa. The retentate was used for quantification using ELISA. According to the standards, the EPO secreted in the medium is in the range of 47-51 IU/mL of EPO.
For this, four different sgRNAs were designed for each of the growth factors/cytokines and constructed lentiviral vectors as mentioned previously (Table 4). For testing the activity of EPO expression, the lentiviruses of four different sgRNAs were produced and screened for the best performing guide in activating EPO expression. The iPSC-CRISPR dCas9 SAM cells were transduced with the unconcentrated lentivirus supernatant of the four sgRNAs individually and tested for their EPO gene expression using qPCR analysis on day 4 cells after transduction. […] Further, the spent media of the cells were collected from two wells of a 12-well plate on days 3 and 4 transduced with EPO_g2 and was stored in −20° C. […]

[3] = system: EPO; assay: qPCR screening of EPO sgRNA lentiviruses; conditions: day 4 after transduction, unconcentrated lentivirus supernatant
Procedure: cDNA was synthesized from 1 μg of RNA using the Maxima First Strand cDNA Synthesis Kit (ThermoFisher). Quantitative real-time polymerase chain reaction (qPCR) was carried out using QuantStudio 3 Real-Time PCR System (ThermoFisher). The samples were run in biological triplicates and expression levels normalized using the geometric mean of the “housekeeping” gene: glyceraldehyde phosphate dehydrogenase (GAPDH).
For this, four different sgRNAs were designed for each of the growth factors/cytokines and constructed lentiviral vectors as mentioned previously (Table 4). For testing the activity of EPO expression, the lentiviruses of four different sgRNAs were produced and screened for the best performing guide in activating EPO expression. The iPSC-CRISPR dCas9 SAM cells were transduced with the unconcentrated lentivirus supernatant of the four sgRNAs individually and tested for their EPO gene expression using qPCR analysis on day 4 cells after transduction. […] Further, the spent media of the cells were collected from two wells of a 12-well plate on days 3 and 4 transduced with EPO_g2 and was stored in −20° C. Next, an Amicon Ultra-15 centrifugal filter was used with 10KDa cut-off membrane (EPO molecular weight: 21 KDa) to concentrate the EPO protein and the retentate washed with 1× PBS was used for ELISA assay.

Compound	MIC of geneticin [1]	EPO secreted in the medium [2]	EPO gene expression compared to non-transduced control cells [3]
CN[C@@H]1[C@@H](O)[C@@H](O[C@@H]2[C@@H](O)[C@H](O[C@H]3O[C@H]([C@@H](C)O)[C@@H](O)[C@H](O)[C@H]3N)[C@@H](N)C[C@H]2N)OC[C@]1(C)O [geneticin]	100 µg/mL	–	–
EPO_g2: sgRNA for EPO, guide sequence TGTGCGTGAGGGGTCGCCAG (listed as DNA, chemistry not given here)	–	47-51 IU/mL	higher EPO gene expression
